In ChEMBL document CHEMBL1140671, “Interaction of O-(undec-10-en)-yl-D-glucose derivatives with the Plasmodium falciparum hexose transporter (PfHT)” (Bioorg Med Chem Lett, 2007) one finds Activity, Ki and IC50 data, which are given here for eight compounds.

Assay [1] has as its target T1, Solute carrier family 2, facilitated glucose transporter member 1 (Homo sapiens) (UniProt P11166).
T1 sequence (whole entry): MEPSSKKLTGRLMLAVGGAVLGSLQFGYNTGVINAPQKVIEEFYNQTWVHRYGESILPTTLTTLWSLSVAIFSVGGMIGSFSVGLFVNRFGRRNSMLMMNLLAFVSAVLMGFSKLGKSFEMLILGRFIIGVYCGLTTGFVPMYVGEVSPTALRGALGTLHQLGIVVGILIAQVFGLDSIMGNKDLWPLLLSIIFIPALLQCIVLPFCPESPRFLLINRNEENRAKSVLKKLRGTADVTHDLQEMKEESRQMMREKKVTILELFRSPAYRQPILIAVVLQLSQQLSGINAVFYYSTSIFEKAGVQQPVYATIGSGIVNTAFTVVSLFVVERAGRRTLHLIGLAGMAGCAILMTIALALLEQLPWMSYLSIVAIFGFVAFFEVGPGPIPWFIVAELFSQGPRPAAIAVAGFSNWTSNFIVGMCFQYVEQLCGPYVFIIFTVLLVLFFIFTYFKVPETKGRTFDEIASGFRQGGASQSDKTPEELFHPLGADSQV
Put plainly: (§1) Inhibition of [3H]glucose uptake at mammalian GLUT1 expressed in Xenopus laevis oocytes. It counts as cell-based. The conditions noted are these: Oocyte.

The target in a further assay is T2, Hexose transporter 1 (Plasmodium falciparum, UniProt O97467).
T2 sequence (O97467 whole entry): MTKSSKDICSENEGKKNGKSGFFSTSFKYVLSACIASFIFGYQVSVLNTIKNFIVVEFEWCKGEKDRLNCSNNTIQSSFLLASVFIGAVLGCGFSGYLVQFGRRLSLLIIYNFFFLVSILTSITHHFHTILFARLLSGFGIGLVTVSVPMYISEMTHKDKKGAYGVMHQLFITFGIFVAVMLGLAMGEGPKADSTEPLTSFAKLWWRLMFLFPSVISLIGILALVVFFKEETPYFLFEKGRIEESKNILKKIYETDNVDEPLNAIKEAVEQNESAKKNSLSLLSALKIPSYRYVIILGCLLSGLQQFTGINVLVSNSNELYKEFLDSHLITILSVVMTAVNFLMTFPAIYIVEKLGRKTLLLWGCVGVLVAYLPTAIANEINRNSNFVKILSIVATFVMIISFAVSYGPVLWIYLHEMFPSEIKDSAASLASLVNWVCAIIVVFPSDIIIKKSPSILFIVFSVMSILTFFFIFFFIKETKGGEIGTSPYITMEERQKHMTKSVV
Put plainly: Inhibition of [3H]glucose uptake at Plasmodium falciparum HT expressed in Xenopus laevis oocytes. Format: cell-based, Oocyte.

Assay [2] deals with T3, Solute carrier family 2, facilitated glucose transporter member 1 (Homo sapiens, UniProt P11166).
T3 sequence (P11166 whole entry): T1 sequence (whole entry)
The description is as §1. Format: cell-based, Oocyte.

For a further assay, the system named is Plasmodium falciparum. Nature of the assay: Antiplasmodial activity against Plasmodium falciparum 3D7. Format: functional, organism-based.

Each structure is given as a SMILES string. pIC50, pKi: −log10 of the molar value. Calls of active or inactive are those of the source. The calls are words filed in the database; no cut-off is given here.

Regarding `C=CCCCCCCCCCO[C@H](CO)[C@H]1OC(O)[C@H](O)[C@H]1O` (stereo partly drawn), the outcome in assay [1] was inactive. In addition, on Hexose transporter 1, the pKi is 2.82.

Regarding `C=CCCCCCCCCCO[C@@H]1O[C@H]([C@H](O)CO)[C@H](O)[C@H]1O`, the result in assay [1] was inactive. Besides, the negative-log Ki (pKi) on Hexose transporter 1 was less than 3.30.

Turning to `C=CCCCCCCCCCOC[C@H]1OC(O)[C@H](O)[C@@H](O)[C@@H]1O` (stereo partly drawn), the pKi in assay [2] is 3.40; at Hexose transporter 1, 2.70.

Regarding `C=CCCCCCCCCCO[C@H]1[C@H](O)[C@@H](CO)OC(O)[C@@H]1O` (stereo partly drawn), the pKi in assay [2] was 4.01; at Hexose transporter 1, 4.59. The compound further showed a pIC50 in the assay with Plasmodium falciparum of 3.91.

With `C=CCCCCCCCCCO[C@H]1O[C@H]([C@H](O)CO)[C@H](O)[C@H]1O`, in assay [1], the result was inactive. The pKi on Hexose transporter 1 is less than 3.30.

In the case of `C=CCCCCCCCCCO[C@H]1C(O)O[C@H](CO)[C@@H](O)[C@@H]1O` (stereo partly drawn), the outcome in assay [1] was inactive. In the assay on Plasmodium falciparum, this compound had a pIC50 of 5.09. Further, the pKi on Hexose transporter 1 is 5.70.

In the case of `C=CCCCCCCCCCO[C@H]1O[C@H](CO)[C@@H](O)[C@H](O)[C@H]1O`, the result in assay [1] was inactive. The same compound gave a pKi on Hexose transporter 1 of less than 3.30.

Turning to `C=CCCCCCCCCCO[C@@H]1O[C@H](CO)[C@@H](O)[C@H](O)[C@H]1O`, the pKi (in assay [2]; on Hexose transporter 1) was less than 3.30 throughout.

Usually pKi stands for the negative decadic logarithm of the Ki, by convention in mol/L. Lower therefore signals a large Ki. By pIC50 is commonly meant the negative decadic logarithm of the IC50, by convention in mol/L.
